Measured values reported in patent publication US9879243B2, “Culture medium for cell growth and transfection” (LIFE TECHNOLOGIES CORPORATION, priority 2001, dated 2018).

Columns and labels:
Settings in all cases: third passage
Sp2/0 cells = test: Effect of replacement compounds on the growth of Sp2/0 cells in CD Hybridoma medium without transferrin, three passages; type: cell-based
Description: The ability of replacement compounds to support cellular growth in the absence of transferrin was evaluated using Sp2/0 cells maintained in CD Hybridoma medium (Invitrogen Corporation, Carlsbad, Calif.).
Stock cultures containing 5 μg/mL human holo-transferrin were prepared in CD Hybridoma medium. For replacement compound evaluation, Sp2/0 cells were established at an initial viable cell density of 0.5×10^5 cells/mL in stationary culture using 75 cm^2 tissue culture flasks in a final volume of 20 mL. All cultures were maintained at 37° C. in humidified air containing 8% CO2. To eliminate transferrin carry-over effects, cells were subcultured at the same seeding density at 4 day intervals for a total of three passages. Positive control cultures contained 5 μg/mL human holo-transferrin while negative control cultures were established in the absence of either transferrin or replacement compound. Replacement compound stocks were prepared at 0.1M-0.2M in ddH2O and solubilized when necessary using 5N NaOH or HCl. Iron complexes were established using 0.2M replacement compound and iron stocks mixed 1:1 (v/v) and incubated for 5-10 minutes at 22° C. All solutions containing replacement compounds were filter sterilized using a 0.22 μm Millex-GV filter prior to addition to transferrin and serum-free media.
(§1) Except where otherwise noted, replacement compounds were evaluated either alone or in combination with ferric chloride or ferrous sulfate at 25 μM, 50 μM and 100 μM. Values in the table represent the mean percentage of control growth for duplicate cultures determined at the third passage.
When added to the medium formulation un-complexed, the replacement compound is listed alone, when added as a complex with a transition metal, the source of the transition metal is listed with the replacement compound.

293 cells = test: Effect of replacement compounds on the growth of 293 cells in 293 SFM without transferrin, three passages; type: cell-based, human
Description: Semi-confluent adherent cultures of 293 Cells (ATCC, CRL 1573) are readily adapted to suspension culture. The cells are first detached with a solution of Trypsin-EDTA (0.05% Trypsin, 0.53 mM Na4EDTA), and then resuspended in conventional medium supplemented with 10% FBS to inhibit the trypsin. The resuspended cells are centrifuged at 200×g for five minutes.
The initial seeding density of the 293 cells after conversion to suspension culture is 1×10^6 cells/mL. The cells are shaken on a rotary shaker at 150 rpm in a 37° C. incubator equilibrated with 8% CO2-92% air. […] Because 293 cells have a tendency to aggregate, the cells can be vortexed vigorously for approximately 45 seconds to obtain a predominantly single cell suspension at the time of passaging and counting. After several passages in suspension culture, the maximum achievable density can be determined.
For replacement compound evaluation, 293 cells were established in 125 mL shaker flasks at an initial viable seeding density of 2×10^5 cells/mL in a final volume of 20 mL. All cultures were maintained at 37° C. in humidified air containing 8% CO2. To eliminate transferrin carry-over effects, cells were subcultured at 4 day intervals for a total of three passages. At each subculturing, cells were seeded at a density of 2×10^5 cells/mL. Positive control cultures contained 5 μg/mL human holo-transferrin while negative control cultures were established in the absence of either transferrin or replacement compound. Replacement compound stocks were prepared at 0.1M-0.2M in ddH2O and solubilized when necessary using 5N NaOH or HCl. Iron complexes were established using 0.2 M replacement compound and iron stocks mixed 1:1 (v/v) and incubated for 5-10 minutes at 22° C. All solutions containing replacement compounds were filter sterilized using a 0.22 μm Millex-GV filter prior to addition to transferrin and serum-free media.
as §1, with “where” for “where otherwise”, “μM. When used in combination, the replacement compounds were used in equimolar concentration with iron ions.” for “μM.”, “Table 4” for “the table”
When added to the medium formulation uncomplexed, the replacement compound is listed alone, when added as a complex with a transition metal, the source of the transition metal is listed with the replacement compound.

CHO cells = test: Effect of replacement compounds on the growth of CHO cells in CD CHO medium without transferrin, three passages; type: cell-based, Chinese hamster
Description: The ability of replacement compounds to support cellular growth in the absence of transferrin was evaluated using CHO cells maintained in CD CHO medium (Invitrogen Corporation, Carlsbad, Calif., the formulation of which is described in WO 98/08934). Stock cultures containing 5 μg/mL human holo-transferrin were prepared in CD CHO medium. For replacement compound evaluation, CHO cells were established in 125 mL shaker flasks at an initial viable seeding density of 1×10^5 cells/mL in a final volume of 20 mL. All cultures were maintained at 37° C. in humidified air containing 8% CO2. To eliminate transferrin carry-over effects, cells were subcultured at 4 day intervals for a total of three passages. Positive control cultures contained 5 μg/mL human holo-transferrin while negative control cultures were established in the absence of either transferrin or replacement compound. Replacement compound stocks were prepared at 0.1M-0.2M in ddH2O and solubilized when necessary using 5N NaOH or HCl. Iron complexes were established using 0.2M replacement compound and iron stocks mixed 1:1 (v/v) and incubated for 5-10 minutes at 22° C. All solutions containing replacement compounds were filter sterilized using a 0.22 μm Millex-GV filter prior to addition to transferrin and serum-free media.
Except where noted, replacement compounds were evaluated either alone or in combination with ferric chloride or ferrous sulfate at 25 μM, 50 μM and 100 μM. Values in the table represent the mean percentage of control growth for duplicate cultures determined at the third passage.
The ability of various replacement compounds to substitute for transferrin in the culture of CHO cells was determined. When added to the medium formulation un-complexed, the replacement compound is listed alone, when added as a complex with a transition metal, the source of the transition metal is listed with the metal binding compound.

[1] = 25 μM, control 5 μg/mL human holo-transferrin
[2] = 100 μM, control 5 μg/mL human holo-transferrin
[3] = 25 μM, control 5 μg/mL human holo-transferrin, iron equimolar where combined
[4] = 50 μM, control 5 μg/mL human holo-transferrin

Row | Compound | mean percentage of control growth (Sp2/0 cells; [1]) | mean percentage of control growth (Sp2/0 cells; 50 μM) | mean percentage of control growth (Sp2/0 cells; 100 μM) | mean percentage of control growth (293 cells; [2]) | mean percentage of control growth (293 cells; [3]) | mean percentage of control growth (293 cells; [4]) | further results
1 | 2-Hydroxynicotinic Acid•Ferric Chloride | 64 percentage of control growth | 82 percentage of control growth | 85 percentage of control growth | 0 percentage of control growth | – | – | mean percentage of control growth (293 cells; 150 μM): 0 percentage of control growth; mean percentage of control growth (293 cells; 200 μM): 99 percentage of control growth
2 | [Cl][Fe]([Cl])[Cl].c1ccc(-c2ccccn2)nc1 [2,2-Dipyridyl•Ferric Chloride] | – | – | – | 0 percentage of control growth | 51 percentage of control growth | 96 percentage of control growth | –
3 | O=C(O)c1cccc(O)c1O.[Cl][Fe]([Cl])[Cl] [2,3-Dihydrobenzoic Acid•Ferric Chloride] | – | – | – | – | – | – | mean percentage of control growth (CHO cells; [1]): 71 percentage of control growth; mean percentage of control growth (CHO cells; 50 μM): 0 percentage of control growth; mean percentage of control growth (CHO cells; 100 μM): 0 percentage of control growth
4 | O=C(O)c1ccccn1.O=S(=O)([O-])[O-].[Fe+2] [2-Pyridinecarboxylic Acid•Ferrous Sulfate] | – | – | – | 0 percentage of control growth | 67 percentage of control growth | 48 percentage of control growth | –
5 | Cc1occc(=O)c1O.[Cl][Fe]([Cl])[Cl] [3-Hydroxy-2-Methyl-4-Pyrone•Ferric Chloride] | 60 percentage of control growth | 71 percentage of control growth | 75 percentage of control growth | – | – | – | –
6 | O=[N+]([O-])c1ncccc1O.[Cl][Fe]([Cl])[Cl] [3-Hydroxy-2-Nitropyridine•Ferric Chloride] | 52 percentage of control growth | 62 percentage of control growth | 72 percentage of control growth | – | – | – | –
7 | [O-][n+]1cccc(O)c1 [3-Hydroxypyridine-N-Oxide] | – | – | – | 4 percentage of control growth | 4 percentage of control growth | 4 percentage of control growth | –
8 | CC(=O)N[C@@H](CS)C(=O)O.[Cl][Fe]([Cl])[Cl] [N-Acetyl-Cysteine•Ferric Chloride] | – | – | – | 52 percentage of control growth | 88 percentage of control growth | 82 percentage of control growth | –
9 | O=C(O)CN(CC(=O)O)CC(=O)O [Nitriloacetic Acid] | 0 percentage of control growth | 0 percentage of control growth | 0 percentage of control growth | – | – | – | –
10 | Acetohydroxamic Acid•Ferric Chloride | – | – | – | 0 percentage of control growth | 83 percentage of control growth | 22 percentage of control growth | mean percentage of control growth (Sp2/0 cells; 5 μM): 40 percentage of control growth; mean percentage of control growth (Sp2/0 cells; 10 μM): 48 percentage of control growth; mean percentage of control growth (Sp2/0 cells; 20 μM): 47 percentage of control growth
11 | Asparagine•Ferric Chloride | 36 percentage of control growth | 51 percentage of control growth | 54 percentage of control growth | – | – | – | –
12 | Aspartic Acid•Ferric Chloride | – | – | – | 100 percentage of control growth | 81 percentage of control growth | 86 percentage of control growth | mean percentage of control growth (CHO cells; [1]): 77 percentage of control growth; mean percentage of control growth (CHO cells; 50 μM): 89 percentage of control growth; mean percentage of control growth (CHO cells; 100 μM): 112 percentage of control growth
13 | Glutamic Acid•Ferric Chloride | – | – | – | 83 percentage of control growth | 102 percentage of control growth | 68 percentage of control growth | –
14 | Glutamine•Ferric Chloride | 36 percentage of control growth | 55 percentage of control growth | 65 percentage of control growth | – | – | – | –
15 | Glycine•Ferric Chloride | 34 percentage of control growth | 61 percentage of control growth | 56 percentage of control growth | 72 percentage of control growth | 81 percentage of control growth | 71 percentage of control growth | –
16 | Lysine•Ferric Chloride | – | – | – | – | – | – | mean percentage of control growth (CHO cells; [1]): 51 percentage of control growth; mean percentage of control growth (CHO cells; 50 μM): 79 percentage of control growth; mean percentage of control growth (CHO cells; 100 μM): 98 percentage of control growth
17 | Mimosine•Ferric Chloride | – | – | – | 80 percentage of control growth | 64 percentage of control growth | 55 percentage of control growth | –
18 | Morpholine•Ferric Chloride | 54 percentage of control growth | 64 percentage of control growth | 81 percentage of control growth | – | – | – | –
19 | Myo-lnositol•Ferric Chloride | – | – | – | 85 percentage of control growth | 79 percentage of control growth | 87 percentage of control growth | –
20 | Nitriloacetic Acid•Ferrous Sulfate | – | – | – | 0 percentage of control growth | 75 percentage of control growth | 95 percentage of control growth | –
21 | Sorbitol•Ferrous Sulfate | – | – | – | 83 percentage of control growth | 58 percentage of control growth | 69 percentage of control growth | –
